These results are taken from US20240368191A1, “HETEROCYCLIC COMPOUNDS AND USES THEREOF” (Kumquat Biosciences Inc., priority 2021, published 2024).

For data set [1], the target named is T1, KRAS G12D 1-169 (His-tagged, GDP-loaded) (Homo sapiens, UniProt P01116, G12D).
T1 construct: His -tagged GDP-loaded G12D 1-169; made in house; host or cells: E. coli, e.g. BL21 (DE3)
The experiment in a line: Covalent modification of KRAS protein by intact-protein LC-MS. Type of data set: binding. To be noted: comparable or same conditions as K-Ras G12S. In a few lines: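 Percent modification is derived from deconvoluted intact-protein LC-ESI-MS peak intensities of adducted versus unmodified KRAS. GDP-loaded His-tagged KRAS 1-169 (~2 μM, HEPES buffer at physiological conditions) was exposed to compound for 24 hrs at room temperature, then quenched with formic acid before C4 reversed-phase separation.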

In data set [2] the test system is LS123 cells. In words: Cell proliferation assay (CellTiter-Glo), K-Ras G12S cells. Type of data set: cell-based. To be noted: Comparative Compound A lacking the warhead vs Compound B. On the procedure: A549 (ATCC CRL-185) and LS123 (ATCC CRL-255) cell lines comprise a G12S mutation and can be used to assess Ras cellular signaling in vitro, e.g., in response to the compounds herein. A549 culture medium is prepared with RPMI-1640 and 10% heat-inactivated FBS. LS123 culture medium is prepared with RPMI-1640 and 10% heat-inactivated FBS. A CellTiter-Glo (CTG) luminescent based assay (Promega) is used to assess growth of the cells, as a measurement of the ability of the compounds herein to inhibit Ras signaling in the cells. The cells (e.g., 800 per well) are seeded in their respective culture medium in standard tissue culture-treated 384-well format plates (Falcon #08-772-116) or ultra-low attachment surface 384-well format plates (S-Bio #MS-9384WZ). The day after plating, cells are treated with a dilution series (e.g., a 10 point 3-fold dilution series) of the compounds herein (e.g., approximately 40 μl final volume per well). Cell viability can be monitored (e.g., approximately 6 days later) according to the manufacturer's recommended instructions, where the CellTiter-Glo reagent is added (e.g., approximately 10 μl), vigorously mixed, covered, and placed on a plate shaker (e.g., approximately for 20 min) to ensure sufficient cell lysis prior to assessment of luminescent signal. The IC50 values are determined using the four parameter fit. The resulting IC50 value is a measurement of the ability of the compounds herein to reduce cell growth of Ras-driven cells (e.g., tumor cell lines) in vitro and/or in vivo.
On the technique in general: ATP-based viability assays read luminescence as a measure of living cells.

The nature of data set [3]: Metabolic (microsomal) stability assay. The note with it: pooled liver microsomes, pH 7.4.
For data set [4] the following is noted: microsomes.

As a reminder, the half-life is the time in which the quantity being followed falls by half.

T1 sequence (P01116 1-169 isoform P01116-2 G12D): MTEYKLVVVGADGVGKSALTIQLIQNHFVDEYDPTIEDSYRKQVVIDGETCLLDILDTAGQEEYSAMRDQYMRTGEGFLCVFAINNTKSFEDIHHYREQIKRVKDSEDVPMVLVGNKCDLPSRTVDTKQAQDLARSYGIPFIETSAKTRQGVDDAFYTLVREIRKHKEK

Take `N#Cc1c(N)sc2c(F)ccc(-c3c(Cl)cc4c(N5CC6(CCCN(C(=O)n7cncn7)C6)C5)nc(OC[C@@]56CCCN5C[C@H](F)C6)nc4c3F)c12` [Compound A266, 4-(4-(6-(1H-1,2,4-triazole-1-carbonyl)-2,6-diazaspiro[3.5]-nonan-2-yl)-6-chloro-8-fluoro-2-(((2R,7aS)-2-fluorotetra-hydro-1H-pyrrolizin-7a(5H)-yl)methoxy)quinazolin-7-yl)-2-amino-7-fluorobenzo[b]thio-phene-3-carbonitrile]: the “covalent labeling of K-Ras G12D” value in data set [1] is listed as “essentially no detectable labeling”. Further, in data set [2], the “Compound IC50 Ratio IC50 (Cpd A):IC50 (Cpd B)” value was >4 (LS123 cells). The half-life at 0.5 μM in data set [3] is above 10 min.
On to `N#Cc1cnn(C(=O)N2C3CCC2CN(c2nc(OC[C@@]45CCCN4C[C@H](F)C5)nc4c(F)c(-c5ccc(F)c6sc(N)c(C#N)c56)c(Cl)cc24)C3)c1` [Compound A278, 1-(3-(7-(2-amino-3-cyano-7-fluorobenzo[b]thiophen-4-yl)-6-chloro-8-fluoro-2-(((2R,7aS)-2-fluorotetrahydro-1H-pyrrolizin-7a(5H)-yl)methoxy)quinazolin-4-yl)-3,8-diazabicyclo[3.2.1]-octane-8-carbonyl)-1H-pyr-azole-4-carbonitrile], for which the T½ microsomal stability result in data set [4] is listed as “greater than 10 mins”.
